Source: patent US20250171431A1, “HETEROCYCLIC INHIBITORS OF IGF-1R FOR TREATMENT OF DISEASE” (HORIZON THERAPEUTICS IRELAND DAC, priority 2023, published 2025)

How the values were obtained:
IGF-1R [1] = target: T1, IGF-1R (Homo sapiens (Human), UniProt P08069); assay: Example B-1: IGF-1R Assay (PC3 cells, IGF1 stimulation, AlphaLISA); assay type: cell-based; settings: 200 ng/mL IGF1 stimulation, read-out: Biological Activity against IGF-1R IC50
Method in brief: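 PC3 cells were serum-starved 2 h, treated with serially diluted compounds for 2 h, then stimulated with IGF1 (200 ng/mL final) for 30 min. Lysates were read by AlphaLISA; % inhibition was calculated relative to vehicle and EC80 controls, with IC50 values binned into ranges.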
Target sequence in this assay (P08069 31-1367): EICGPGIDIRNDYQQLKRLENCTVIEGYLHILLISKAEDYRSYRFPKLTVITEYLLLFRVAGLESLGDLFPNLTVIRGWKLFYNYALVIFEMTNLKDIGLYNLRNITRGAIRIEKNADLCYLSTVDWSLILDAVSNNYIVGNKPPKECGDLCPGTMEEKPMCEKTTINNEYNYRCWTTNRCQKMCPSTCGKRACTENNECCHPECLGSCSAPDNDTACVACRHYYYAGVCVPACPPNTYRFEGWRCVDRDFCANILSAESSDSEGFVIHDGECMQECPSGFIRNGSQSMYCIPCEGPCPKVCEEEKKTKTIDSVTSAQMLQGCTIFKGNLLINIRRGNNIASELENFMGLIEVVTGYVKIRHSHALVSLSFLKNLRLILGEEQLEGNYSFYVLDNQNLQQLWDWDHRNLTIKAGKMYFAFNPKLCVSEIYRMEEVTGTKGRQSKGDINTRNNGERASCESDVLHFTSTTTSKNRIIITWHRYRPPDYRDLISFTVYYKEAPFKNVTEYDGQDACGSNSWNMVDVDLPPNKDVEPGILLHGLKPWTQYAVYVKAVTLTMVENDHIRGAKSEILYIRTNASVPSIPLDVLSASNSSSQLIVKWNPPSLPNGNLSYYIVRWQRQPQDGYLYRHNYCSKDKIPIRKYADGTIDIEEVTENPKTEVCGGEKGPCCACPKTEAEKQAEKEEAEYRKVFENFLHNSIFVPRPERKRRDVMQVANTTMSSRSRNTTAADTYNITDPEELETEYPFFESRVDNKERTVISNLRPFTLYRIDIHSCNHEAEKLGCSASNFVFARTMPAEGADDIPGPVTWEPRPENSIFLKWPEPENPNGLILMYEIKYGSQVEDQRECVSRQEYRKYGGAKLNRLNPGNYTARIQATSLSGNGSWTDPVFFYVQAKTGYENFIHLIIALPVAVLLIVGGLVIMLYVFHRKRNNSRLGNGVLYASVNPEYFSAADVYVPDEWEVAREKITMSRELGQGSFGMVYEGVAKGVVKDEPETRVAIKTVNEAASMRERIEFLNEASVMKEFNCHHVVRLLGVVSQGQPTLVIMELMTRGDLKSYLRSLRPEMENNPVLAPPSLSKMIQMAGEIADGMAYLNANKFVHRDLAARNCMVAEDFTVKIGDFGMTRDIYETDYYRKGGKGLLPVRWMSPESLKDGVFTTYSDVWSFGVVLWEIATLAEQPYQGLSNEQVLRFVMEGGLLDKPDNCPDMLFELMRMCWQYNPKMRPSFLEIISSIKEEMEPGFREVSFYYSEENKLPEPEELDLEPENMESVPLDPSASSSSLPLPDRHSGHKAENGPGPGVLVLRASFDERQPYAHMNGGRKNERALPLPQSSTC

IGF-1R [2] = target: T1, IGF-1R; assay: Example B-2: IGF-1R Assay (PathHunter cell lines, EC80 agonist challenge); assay type: cell-based; settings: read-out: IC50 (Biological Activity against IGF-1R)
Method in brief: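 PathHunter cells were pre-incubated with compound for 60 min at 37° C. (1% vehicle), then challenged with EC80 agonist for 3 hours at room temperature. Chemiluminescent detection followed after 1 h. Percent inhibition was calculated relative to EC80 and vehicle controls, and IC50 values were binned into categories.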
Target sequence in this assay (P08069 31-1367, species assumed): as the sequence (P08069 31-1367) above

Row | IC50 (IGF-1R [1]) | IC50 (IGF-1R [2]) | Compound
1 | ≤ 500 nM | 500 to 2000 nM | COc1cc(N2CCN(C)CC2)ccc1Nc1nccc(Nc2cnc3ccc(Br)cc3c2)n1 [Compound 466, 4-(6-bromo-3-quinolylamino)-2-[2-methoxy-4-(4-methyl-1-piperazinyl)phenylamino] pyrimidine]
2 | ≤ 500 nM | 500 to 2000 nM | COc1cc(N2CCNC3(CC3)C2)ncc1Nc1nccc(Nc2cnc3ccc(Cl)cc3c2)n1 [Compound 496, 4-(6-chloro-3-quinolylamino)-2-{6-(4,7-diaza-7-spiro[2.5]octyl)-4-methoxy-3-pyridylamino}pyrimidine]
3 | ≤ 500 nM | ≤ 500 nM | CN(C)CC1COc2cc(Nc3nccc(Nc4cnc5ccc(C(F)F)cc5c4)n3)ccc2O1 (stereo not drawn) [Compound 497, 4-[6-(difluoromethyl)-3-quinolylamino]-2-{2-[(dimethylamino)methyl]-2,3-dihydro-1,4-benzodioxin-6-ylamino}pyrimidine]
4 | 500 to 2000 nM | 500 to 2000 nM | CN(C)CC(=O)N1CCc2cc(Nc3nccc(Nc4cnc5cc(F)c(F)cc5c4)n3)cnc21 [Compound 498, 1-{5-[4-(6,7-difluoro-3-quinolylamino)-2-pyrimidinylamino]-1,7-diaza-1-indanyl}-2-(dimethylamino)-1-ethanone]
5 | 500 to 2000 nM | 500 to 2000 nM | CN(C)CC1COc2cc(Nc3nccc(Nc4cnc5cc(F)c(F)cc5c4)n3)cnc2O1 (stereo not drawn) [Compound 499, 4-(6,7-difluoro-3-quinolylamino)-2-{3-[(dimethylamino)methyl]-2,3-dihydro-1,4-dioxa-5-aza-7-naphthylamino}pyrimidine]
6 | 2000 to 10000 nM | 500 to 2000 nM | CN(C)CC1COc2ncc(Nc3nccc(Nc4cnc5ccc(Cl)cc5c4)n3)cc2O1 (stereo not drawn) [Compound 500, 4-(6-chloro-3-quinolylamino)-2-{2-[(dimethylamino)methyl]-2,3-dihydro-1,4-dioxa-5-aza-7-naphthylamino}pyrimidine]
7 | 500 to 2000 nM | 500 to 2000 nM | c1ccc2ncc(Nc3ccnc(Nc4ccc5c(ccn5CC5CCOCC5)c4)n3)cc2c1 [Compound 501, 4-(3-quinolylamino)-2-{1-[(tetrahydro-2H-pyran-4-yl)methyl]-5-indolylamino}pyrimidine]
8 | ≤ 500 nM | ≤ 500 nM | c1ccc2ncc(Nc3ccnc(Nc4ccc5ccn(CC6CCCC6)c5c4)n3)cc2c1 [Compound 502, 2-[1-(cyclopentylmethyl)-6-indolylamino]-4-(3-quinolylamino)pyrimidine]
9 | 2000 to 10000 nM | 2000 to 10000 nM | c1ccc2ncc(Nc3ccnc(Nc4ccc5ccn(CC6CCCCC6)c5c4)n3)cc2c1 [Compound 503, 2-[1-(cyclohexylmethyl)-6-indolylamino]-4-(3-quinolylamino)pyrimidine]
10 | ≤ 500 nM | ≤ 500 nM | c1ccc2ncc(Nc3ccnc(Nc4ccc5c(c4)OCCO5)n3)cc2c1 [Compound 505, 2-(2,3-dihydro-1,4-benzodioxin-6-ylamino)-4-(3-quinolylamino)pyrimidine]

Row | Compound | IC50 (IGF-1R [1]) | IC50 (IGF-1R [2])
11 | COc1cc(Nc2nccc(Nc3cnc4c(F)c(F)ccc4c3)n2)cnc1O[C@H]1C[C@@H](N(C)C)C1 [Compound 291, 4-(7,8-difluoro-3-quinolylamino)-2-{5-methoxy-6-[(1s,3s)-3-(dimethylamino)cyclobutoxy]-3-pyridylamino}pyrimidine] | ≤ 500 nM | 500 to 2000 nM
12 | COc1cc(Nc2nccc(Nc3cnc4c(c3)OCCO4)n2)ccc1O[C@H]1C[C@H](N(C)C)C1 [Compound 357, 4-(2,3-dihydro-1,4-dioxa-5-aza-7-naphthylamino)-2-{3-methoxy-4-[(1r,3r)-3-(dimethylamino)cyclobutoxy]phenylamino}pyrimidine] | ≤ 500 nM | ≤ 500 nM
